Source: ChEMBL document CHEMBL1150858, “Two new cytotoxic and virucidal trisulfated triterpene glycosides from the Antarctic sea cucumber Staurocucumis liouvillei” (J Nat Prod, 2001)

What was measured:
Vero [1] = assay: Cytotoxicity against african green monkey Vero cells at 6.25 to 50 ug/mL measured after prolonged incubation by MTT assay; type: cell-based; details: chlorocebus sabaeus
Vero [2] = assay: Cytotoxicity against african green monkey Vero cells at 6.25 to 50 ug/mL within 8 hrs by MTT assay; type: cell-based; details: chlorocebus sabaeus
Human alphaherpesvirus 1 = assay: Antiviral activity against HSV1 KOS in african green monkey Vero cells assessed as residual infectivity at 10 ug/mL by plaque formation assay; type: functional

SMILES | Activity (Vero [1]) | Activity (Vero [2]) | Activity (Human alphaherpesvirus 1) [%]
CO[C@@H]1[C@@H](O)[C@H](O[C@@H]2[C@@H](O)[C@H](O[C@H]3[C@H](O)[C@@H](O)[C@H](O[C@H]4[C@H](O[C@H]5CC[C@]6(C)[C@H]7CC[C@]89C(=O)O[C@@](C)(CCC=C(C)C)[C@H]8[C@@H](OC(C)=O)C[C@@]9(C)C7=CC[C@H]6C5(C)C)OC[C@@H](OS(=O)(=O)[O-])[C@@H]4O)O[C@@H]3C)O[C@H](COS(=O)(=O)[O-])[C@H]2O)O[C@H](COS(=O)(=O)[O-])[C@H]1O.[Na+].[Na+].[Na+] [LIOUVILLOSIDE A] | Toxic | Non-toxic | 24
CO[C@@H]1[C@@H](O)[C@H](O[C@@H]2[C@@H](O)[C@H](O[C@H]3[C@H](O)[C@@H](O)[C@H](O[C@H]4[C@H](O[C@H]5CC[C@]6(C)[C@H]7CC[C@]89C(=O)O[C@@](C)(CCCC(C)C)[C@H]8[C@@H](OC(C)=O)C[C@@]9(C)C7=CC[C@H]6C5(C)C)OC[C@@H](OS(=O)(=O)[O-])[C@@H]4O)O[C@@H]3C)O[C@H](COS(=O)(=O)[O-])[C@H]2O)O[C@H](COS(=O)(=O)[O-])[C@H]1O.[Na+].[Na+].[Na+] [LIOUVILLOSIDE B] | Toxic | Non-toxic | 2.5
